Reference: paper PMC6044507 (ACS Omega, 2018)
Entries after “also recorded” stand apart in the source; their conditions may differ.

Legend:
human GPR84 [1] = biological target: T1, human GPR84 (Homo sapiens, UniProt Q9NQS5); test: cell-based; type: cell-based; conditions: for Emax: read-out: efficacy (Emax), cAMP assay; for EC50: CHO cells expressing human GPR84, forskolin 10 μM
Target sequence in this assay (Q9NQS5 whole entry): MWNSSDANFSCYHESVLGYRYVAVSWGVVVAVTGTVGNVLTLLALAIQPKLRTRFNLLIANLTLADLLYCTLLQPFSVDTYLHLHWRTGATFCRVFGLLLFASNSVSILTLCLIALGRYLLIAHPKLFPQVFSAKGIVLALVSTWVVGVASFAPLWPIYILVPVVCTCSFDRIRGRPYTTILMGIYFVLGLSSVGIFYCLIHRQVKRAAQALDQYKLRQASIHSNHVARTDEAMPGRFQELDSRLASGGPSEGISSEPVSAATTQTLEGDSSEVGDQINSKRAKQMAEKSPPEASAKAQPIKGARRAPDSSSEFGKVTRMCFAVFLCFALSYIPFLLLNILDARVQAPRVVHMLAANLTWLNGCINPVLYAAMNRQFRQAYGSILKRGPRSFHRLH

CHO wild-type (wt) cells = test: cAMP accumulation assay in wild-type CHO cells not expressing GPR84
[2] = metabolic stability in human liver microsomes; type: in vitro ADME; conditions: for metabolic stability, in words: human liver microsomes 0.5 mg/mL, compound 1 μM; for degradation after an incubation period of 60 min: human liver microsomes; for degradation after 30 min of incubation, in words: human microsomes
human GPR84 [3] = biological target: T1, human GPR84; test: cell-based; conditions: EC50 ± SEM, β-arrestin assay, CHO cells expressing human GPR84
Target sequence in this assay (Q9NQS5 whole entry): as above
Target sequence in this assay (P32121 whole entry partner): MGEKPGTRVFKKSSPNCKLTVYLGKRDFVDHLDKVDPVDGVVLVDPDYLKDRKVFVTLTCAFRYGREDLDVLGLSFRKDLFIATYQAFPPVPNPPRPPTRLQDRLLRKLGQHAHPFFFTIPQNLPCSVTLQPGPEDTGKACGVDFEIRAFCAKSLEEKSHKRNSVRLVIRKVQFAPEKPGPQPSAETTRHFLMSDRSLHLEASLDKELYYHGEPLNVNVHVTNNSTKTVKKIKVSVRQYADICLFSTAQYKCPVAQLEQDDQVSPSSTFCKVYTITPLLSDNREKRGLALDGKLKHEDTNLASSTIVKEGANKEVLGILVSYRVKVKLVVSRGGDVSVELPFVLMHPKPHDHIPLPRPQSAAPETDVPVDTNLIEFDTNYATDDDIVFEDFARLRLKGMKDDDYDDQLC

human GPR84 [4] = biological target: T1, human GPR84; conditions: compound 10 μM
Target sequence in this assay (Q9NQS5 whole entry): as the sequence (Q9NQS5 whole entry) above
Target sequence in this assay (P32121 whole entry partner): as the sequence (P32121 whole entry partner) above

human GPR84 [5] = test: pathway bias calculation, Gi; type: cell-based; conditions: corresponding to the bias factor
rodents = conditions: orally, acute exposure; cited from earlier work
[6] = tested on: X-linked inhibitor of apoptosis; conditions: read-out: IC50, X-linked inhibitor of apoptosis; cited from earlier work
[7] = high concentrations of up to 100 μM
[8] = both, human, pooled human liver microsomes

## CCCCCCCCNc1cc(=O)[nH]c(=O)[nH]1 [Compound 4, 6-octylaminouracil]
Human GPR84 [1]
  Emax: 104%
CHO wild-type (wt) cells
  effect in nontransfected CHO cells (cAMP assay): no effect
CHO wild-type (wt) cells; concentrations of up to 1 μM
  effect on forskolin-induced cAMP accumulation in CHO wt cells: None of the tested compounds showed any significant effect
CHO wild-type (wt) cells; [7]
  effect on forskolin-induced cAMP accumulation in CHO wt cells: no effect

## CCCCCCNc1cc(=O)[nH]c(=O)[nH]1 [Compound 20, 6-Hexylamino-2,4(1H,3H)-pyrimidinedione]
Human GPR84 [1]
  Emax: 127%
[2]
  metabolic stability, in words: metabolically stable; also recorded: highly stable
  degradation after an incubation period of 60 min: negligible
  degradation after 30 min of incubation, in words: no degradation
CHO wild-type (wt) cells; concentrations of up to 1 μM
  effect on forskolin-induced cAMP accumulation in CHO wt cells: None of the tested compounds showed any significant effect
CHO wild-type (wt) cells; [7]
  effect on forskolin-induced cAMP accumulation in CHO wt cells: no effect

## CCCCCCCCCNc1cc(=O)[nH]c(=O)[nH]1 [Compound 22, 6-Nonylamino-2,4(1H,3H)-pyrimidinedione]
Human GPR84 [1]
  Emax: 118%
[2]; [8]
  half-life at 1 μM: 2 min
  microsomal CLint at 1 μM: 880 µL/min/mg
Human GPR84 [3]
  EC50: 0.034 ± 0.007 µM

## CCCCCCCCCCNc1cc(=O)n(C)c(=O)[nH]1 [Compound 33, 6-Decylamino-3-methyl-2,4(1H,3H)-pyrimidinedione]
Human GPR84 [4]
  percent receptor activation at 10 μM, β-arrestin assay: 8%
Human GPR84 [1]; EC50 ± SEM, cAMP assay
  EC50: 1.9 ± 0.68 µM
Human GPR84 [1]
  Emax: 72%
Human GPR84 [3]
  EC50: > 10 µM

## Oc1cc(NCCc2ccccc2)nc(O)n1 [Compound 42, 6-(2-Phenylethylamino)-2,4(1H,3H)-pyrimidinedione]
[2]
  metabolic stability, in words: highly stable
  degradation after an incubation period of 60 min: negligible
  degradation after 30 min of incubation, in words: no degradation

## O=c1cc(NCCc2ccc(Cl)cc2)[nH]c(=O)[nH]1 [Compound 47, 6-((p-chlorophenylethyl)amino)-2,4(1H,3H)-pyrimidinedione]
Human GPR84 [1]
  Emax: 137%
Human GPR84 [5]
  preference for Gi coupling versus β-arrestin recruitment: 79 fold
CHO wild-type (wt) cells; concentrations of up to 1 μM
  effect on forskolin-induced cAMP accumulation in CHO wt cells: None of the tested compounds showed any significant effect

## O=c1cc(NCCc2ccc(Br)cc2)[nH]c(=O)[nH]1 [Compound 48, 6-(p-Bromophenylethylamino)-2,4(1H,3H)-pyrimidinedione]
Human GPR84 [1]
  Emax: 127%
Human GPR84 [5]
  preference for Gi coupling versus β-arrestin recruitment: 20 fold
[2]
  metabolic stability, in words: metabolically stable; also recorded: highly stable
  degradation after an incubation period of 60 min: negligible
  degradation after 30 min of incubation, in words: no degradation
CHO wild-type (wt) cells; concentrations of up to 1 μM
  effect on forskolin-induced cAMP accumulation in CHO wt cells: None of the tested compounds showed any significant effect

## CCc1ccc(CCNc2cc(=O)[nH]c(=O)[nH]2)cc1 [Compound 49, 6-(p-Ethylphenylethylamino)-2,4(1H,3H)-pyrimidinedione]
Human GPR84 [1]; EC50, cAMP assay
  EC50: < 0.01 µM
Human GPR84 [1]
  Emax: 136%
Human GPR84 [3]
  EC50: 0.12 ± 0.05 µM
CHO wild-type (wt) cells; concentrations of up to 1 μM
  effect on forskolin-induced cAMP accumulation in CHO wt cells: None of the tested compounds showed any significant effect

## COc1ccc(CCNc2cc(=O)[nH]c(=O)[nH]2)cc1OC [Compound 60, 6-(m,p-Dimethoxyphenethylamino)-2,4(1H,3H)-pyrimidinedione]
Human GPR84 [4]
  percent receptor activation at 10 μM, β-arrestin assay: 28%
Human GPR84 [1]; EC50 ± SEM, cAMP assay
  EC50: 0.81 ± 0.23 µM
Human GPR84 [1]
  Emax: 116%
Human GPR84 [3]
  EC50: > 10 µM

## O=c1cc(NCCc2c[nH]c3ccccc23)[nH]c(=O)[nH]1 [Compound 62, 6-(1H-Indol-3-ylethylamino)-2,4(1H,3H)-pyrimidinedione]
Human GPR84 [4]
  percent receptor activation at 10 μM, β-arrestin assay: 14%
Human GPR84 [3]
  EC50: > 10 µM

## CCCCCCCCCCCC1=C(O)C(=O)C=C(O)C1=O [embelin (6), embelin]
rodents
  dose found to be safe: up to 3 g/kg
[6]
  IC50: 4.1 µM
